Reference: patent US20160333404A1, “METHODS FOR TREATING HCV” (priority 2012, published 2016)

How the values were obtained:
miR-122 [1] = test: Serum miR-122 expression by microRNA real-time PCR, Example 2, 3 days polymerase inhibitor monotherapy then with P/R; format: in vivo, human; settings: treatment-naïve GT1 subjects, day 3 vs day 1
Method: Sample preparation and microRNA real-time PCR. Serum samples were collected at baseline (“BASE”), week 2 on-treatment (“W2”), week 10 on-treatment (“W10”), and 8 weeks after completing the 12 week regimen (“Post Week 8”) and frozen until analysis. Total RNA was extracted from serum using the Qiagen miRNeasy® Mini Kit. Serum was thawed on ice and centrifuged at 3000×g for 5 min in a 4° C. microcentrifuge. An aliquot of 200 μL of serum per sample was transferred to a new microcentrifuge tube and 750 μl of a Qiazol mixture containing 1.25 μg/mL of MS2 bacteriophage RNA was added to the serum. The tube was mixed and incubated for 5 min followed by the addition of 200 μL chloroform. […]
15 μl RNA was reverse transcribed in 75 μl reactions using the miRCURY LNA™ Universal RT microRNA PCR, Polyadenylation and cDNA synthesis kit (Exiqon). cDNA was diluted 50× and assayed in 10 ul PCR reactions according to the protocol for miRCURY LNA™ Universal RT microRNA PCR; each microRNA was assayed once by qPCR on the microRNA Ready-to-Use PCR, Human panel I and panel II. […] The amplification curves were analyzed using the Roche LC software, both for determination of Cp (by the 2nd derivative method) and for melting curve analysis. All data was normalized to the average of assays detected in all samples (average—assay Cp). […]

miR-122 [2] = test: Serum miR-122 levels with or without RBV, genotype 2 and 3 patients that achieved SVR (FIG. 7); format: in vivo, human; settings: HCV 2 and 3 subjects who achieve SVR on Compound 1/r with Compound 3; presence n=13, absence n=9
Excerpt: Sample preparation and microRNA real-time PCR. Serum samples were collected at baseline (“Baseline”), day 3 on-treatment (“Day 3”), week 2 on-treatment (“Week 2”), week 10 on-treatment (“Week 10”), and 8 weeks after completing the 12 week regimen (“PT Week 8”) and frozen until analysis. Samples were processed as described in Example 1.
In HCV 2 and 3 subjects who achieve SVR, miR-122 levels are not affected by the presence (n=13) or absence (n=9) of RBV.

Levels of miR-122 after three days of polymerase inhibitor alone (miR-122 [1]) | SMILES | effect of presence or absence of RBV on miR-122 levels (miR-122 [2])
decreased | COc1c(-c2ccc3cc(NS(C)(=O)=O)ccc3c2)cc(-n2ccc(=O)[nH]c2=O)cc1C(C)(C)C [Compound 2, N-(6-(3-tert-butyl-5-(2,4-dioxo-3,4-dihydropyrimidin-1(2H)-yl)-2-methoxyphenyl)naphthalen-2-yl)methanesulfonamide] | –
– | NC(=O)c1ncn([C@@H]2O[C@H](CO)[C@@H](O)[C@H]2O)n1 [RBV, ribavirin] | not affected
decreased | COc1c(/C=C/c2ccc(NS(C)(=O)=O)cc2)cc(-n2ccc(=O)[nH]c2=O)cc1C(C)(C)C [Compound 4, (E)-N-(4-(3-tert-butyl-5-(2,4-dioxo-3,4-dihydropyrimidin-1(2H)-yl)-2-methoxystyryl)phenyl)methanesulfonamide] | –
